Tests used:
human erythrocytes = assay: Human blood hemolysis; format: cell-based
Protocol: Human blood hemolysis. Hemolytic activity of retinoids on human erythrocytes was evaluated using a previously described method with modifications. 10% human erythrocytes were purchased from Rockland Immunochemicals (Limerick, PA, USA). The erythrocytes were diluted to 4% with PBS, and 100 μl was added to 100 μl of two-fold serial dilutions of compounds in PBS, 0.2% DMSO (negative control), or 2% Triton-X 100 (positive control) in a 96-well plate. The plate was incubated at 37° C. for 1 h and then centrifuged at 500×g for 5 min. 100 μl of the supernatant was transferred to a fresh 96-well plate and absorbance of supernatants was measured at 540 nm. Percent hemolysis was calculated using the following equation: (A540 nm of compound treated sample−A540 nm of 0.1% DMSO treated sample)/(A540 nm of 1% Triton X-100 treated sample−A540 nm of 0.1% DMSO treated sample)×100. HC50 (concentration of compound causing 50% hemolysis) was determined using SigmaPlot 10.0 (Systat Software Inc., San Jose, CA, USA).

[1] = Cytotoxicity (WST-1) in HepG2 cells; format: cell-based, human; conditions: human; HepG2 cells, serum-free media, 24 h; read-out: LC50
Text: (§1) Human hepatoma, HepG2 (ATCC HB-8065) cells were maintained in DMEM containing 10% fetal bovine serum and antibiotics penicillin—streptomycin (100 units/ml). Normal human primary renal proximal tubular epithelial cells (RPTEC, Lonza catalog #CC-2553, Walkersville, MD, USA) and adult normal human epidermal keratinocytes (NHEK, Lonza catalog #192627) were maintained in renal cell growth media with growth supplements (REGM, Lonza catalog #CC-3190) and in keratinocyte growth media 2 with growth supplements (KGM-2, Lonza catalog #CC-3107), respectively in a humidified 5% CO2 incubator at 37° C.
(§2) For cytotoxicity tests, HepG2, RPTEC, and NHEK were cultured at 70-80% confluence in tissue culture treated 96-well plates in a volume of 100 μl/well corresponding culture media. To test cytotoxicity in the absence of serum, all cells were washed twice with PBS and then once with the serum-free corresponding culture media. The cells were then treated with a range of concentrations of retinoids in the serum-free culture media for 24 h. For the last 4 h of the 24 h period, 50 μl and 10 μl of WST-1 (Roche, Mannheim, Germany) were added in each well of the 24-well and the 96-well plates, respectively. WST-1 reduction was measured at 450 nm. The percent fluorescence relative to that of the no-treatment control was calculated. The assay was done in triplicate.

[2] = system: human hepatoma HepG2 cells; assay: Cytotoxicity (WST-1) in HepG2 cells; format: cell-based; conditions: compared with CD437, in words
Text: as §1, §2

Maximum tolerated dose = format: in vivo; conditions: mice
Protocol: Maximum tolerated dose. Six-week-old female CD1 ICR outbred mice (20-25 g) were obtained from Charles River Laboratories (Wilmington, MA, USA). Analog 2 was dissolved in a 1:1 solution of Kolliphor EL (Sigma-Aldrich, St Louis, MO, USA) and ethanol and then diluted 1:10 in saline to a final concentration of 4 mg/ml. Groups of mice (n=6) were treated with 10, 20, 40, 80 mg/kg Analog 2 i.p. or vancomycin (25 mg/kg) every 12 h for 3 days. Control mice were injected with 400 μl of 10% Kolliphor EL/ethanol in saline i.p. every 12 h for 3 days. Mice were closely monitored until they were euthanized at 72 h from the first infection. After euthanizing mice, blood was collected by cardiac puncture. All samples were stored at 4° C. until for analysis. Serum was analyzed for alanine aminotransferase and urea nitrogen content with commercially available kits, following the manufacturer's protocol (Pointe Scientific, Canton, MI, USA). No statistical methods were used to predetermine samples size. The experiments were not randomized, and investigators were not blinded to allocation during experiments and outcome assessment. This study and all experimental protocols were approved by the Rhode Island Hospital Institutional Animal Care and Use Committee (RIH IACUC) and conducted in accordance with the Animal Welfare Act and National Institutes of Health guidelines for animal care and use. Statistical significance among each group was analyzed by one-way ANOVA with post-hoc Tukey test using PASW Statistics 18 (SPSS Inc. Chicago, IL, USA) and GraphPad Prism 7 (GraphPad Software, La Jolla, CA, USA).

[3] = system: Cutibacterium (Propionibacterium) acnes; assay: Growth inhibition / MIC against P. acnes; format: cell-based; conditions: in words (FIG. 11)
Protocol: Minimal inhibitory concentration (MIC) assay. The MICs of antibiotics were determined by the standard micro-dilution method recommended by the Clinical and Laboratory Standards Institute. The assay was conducted in triplicate.
More specifically, uptake of SYTOX Green by Cutibacterium (Propionibacterium) acnes cells treated with retinoids CD437 and Analog 2 increased, indicating higher permeability (FIG. 12; individual data points (n=3 biologically independent samples) and means are shown).

[4] = system: Cutibacterium (Propionibacterium) acnes; assay: Morphology of treated P. acnes bacteria; format: cell-based; conditions: in words (FIG. 13)
[5] = every 12 h for 3 days, Analog 2 10-80 mg/kg i.p., vancomycin 25 mg/kg i.p., P>0.7

SMILES: OCc1ccc2cc(-c3ccc(O)c(C45CC6CC(CC(C6)C4)C5)c3)ccc2c1 [Analog 2, 2-(adamantan-1-yl)-4-(6-(hydroxymethyl)naphthalen-2-yl)phenol]
- hemolytic activity (human erythrocytes; compared with CD437, in words): significantly reduced
- HC50 (human erythrocytes; human erythrocytes, 1 h): > 32 µg/mL
- CC50 at 24 h [1]: > 32 µg/mL
- anticancer activity [2]: significantly reduced
- alanine aminotransferase (ALT) vs. control (Maximum tolerated dose; [5]): lack of significant differences
- blood urea nitrogen (BUN) vs. control (Maximum tolerated dose; [5]): lack of significant differences
- hepatic or renal toxicity (Maximum tolerated dose; up to 80 mg/kg i.p. (highest tested dose) every 12 h for 3 days): no detectable
- growth inhibition [3]: inhibit the growth
- morphology of bacteria [4]: altered and elongated

From patent US12195424B2, “Antibiotic compounds” (The General Hospital Corporation, priority 2017, dated 2025)
